From DBAASP
Values after ≈ are worked out from the molar mass of the structure shown.

Key:
Test in all cases: ≥ marks a high value that may be exact or a test limit, other limits are often not marked, values filed in µg/mL are converted to µM
[1] = test system: Candida albicans FRR 5580
[2] = test system: Escherichia coli ATCC 25922
[3] = test system: Pseudomonas aeruginosa ATCC 9027
[4] = test system: Staphylococcus aureus ATCC 25923
[5] = test system: Bacillus subtilis 168
[6] = test system: Escherichia coli DH5alpha
[7] = test system: Mycobacterium tuberculosis H37Ra
[8] = test system: Pseudomonas aeruginosa PAO1
[9] = test system: Staphylococcus aureus NRS 72
[10] = test system: Staphylococcus aureus USA 300
[11] = test system: Staphylococcus aureus SH1000
[12] = test system: Acinetobacter baumannii ATCC 19606
[13] = test system: Bacillus megaterium
[14] = test system: Candida albicans ATCC 90028
[15] = test system: Candida parapsilosis ATCC 22019
[16] = test system: Enterococcus faecalis ATCC 29212
[17] = test system: Escherichia coli ATCC 35218
[18] = test system: Escherichia coli ML-35p
[19] = test system: Klebsiella pneumoniae ATCC 13883
[20] = test system: Listeria ivanovii
[21] = test system: Pseudomonas aeruginosa ATCC 27853
[22] = test system: Saccharomyces cerevisiae
[23] = test system: Salmonella enterica subsp. enterica serovar Enteritidis
[24] = test system: Staphylococcus aureus ATCC 43300
[25] = test system: Staphylococcus aureus ATCC BAA-44
[26] = test system: Staphylococcus aureus ST1065
[27] = test system: Escherichia coli W3110
[28] = test system: Klebsiella pneumoniae ATCC BAA-1705
[29] = test system: Bacillus subtilis CMCC 63501
[30] = test system: Escherichia coli CICC 10670
[31] = test system: Listeria monocytogenes ATCC 19115
[32] = test system: Salmonella enterica subsp. enterica serovar Typhimurium ATCC 14028
[33] = test system: Staphylococcus aureus ATCC 6538
[34] = test system: Enterococcus faecalis ATCC 51299
[35] = test system: Enterococcus faecium ATCC 19434
[36] = test system: Klebsiella pneumoniae ATCC 49472
[37] = test system: Klebsiella pneumoniae ATCC BAA-2814
[38] = test system: Staphylococcus aureus ATCC 12600
[39] = test system: Staphylococcus aureus ATCC BAA-2312
[40] = test system: Escherichia coli TOP 10

NC(=O)[C@H](CCCN=C(N)N)NC(=O)[C@H](CCCN=C(N)N)NC(=O)[C@H](Cc1c[nH]c2ccccc12)NC(=O)[C@H](Cc1c[nH]c2ccccc12)NC(=O)[C@H](CCCN=C(N)N)NC(=O)[C@H](Cc1c[nH]c2ccccc12)NC(=O)[C@H](Cc1c[nH]c2ccccc12)NC(=O)[C@H](CCCN=C(N)N)NC(=O)[C@H](Cc1c[nH]c2ccccc12)NC(=O)[C@H](CCCN=C(N)N)NC(=O)[C@H](CCCN=C(N)N)NC(=O)[C@H](CCCN=C(N)N)NC(=O)[C@@H](N)CCCN=C(N)N [RRRRWRWWRWWRR]
MIC [1]: ≥ 114 µM | MIC [2]: 29.1 µM (≈ 64 µg/mL) | MIC [3]: 29.1 µM (≈ 64 µg/mL) | MIC [4]: 29.1 µM (≈ 64 µg/mL)

CC(C)C[C@H](NC(=O)[C@H](Cc1c[nH]c2ccccc12)NC(=O)[C@H](CCCCN)NC(=O)[C@H](CCCN=C(N)N)NC(=O)[C@H](Cc1c[nH]c2ccccc12)NC(=O)[C@@H](NC(=O)CNC(=O)[C@@H](NC(=O)[C@H](Cc1c[nH]c2ccccc12)NC(=O)[C@H](CCCN=C(N)N)NC(=O)[C@H](CCCCN)NC(=O)[C@H](Cc1c[nH]c2ccccc12)NC(=O)[C@@H](N)CC(C)C)C(C)C)C(C)C)C(N)=O [LWKRWVGVWRKWL]
MIC [5]: 0.6 µM (≈ 1.09 µg/mL) | MIC [6]: 10 µM (≈ 18.1 µg/mL) | MIC [7]: 20 µM (≈ 36.2 µg/mL) | MIC [8]: 20 µM (≈ 36.2 µg/mL) | MIC [9]: 5 µM (≈ 9.06 µg/mL) | MIC [10]: 7 µM (≈ 12.7 µg/mL)

CC[C@H](C)[C@H](NC(=O)[C@H](CC(=O)O)NC(=O)[C@H](Cc1ccccc1)NC(=O)[C@H](CC(C)C)NC(=O)[C@@H](N)CCCCN)C(=O)N[C@H](C(=O)N[C@@H](CCCCN)C(=O)N[C@@H](CCCCN)C(=O)N[C@H](C(=O)N[C@H](C(=O)NCC(=O)N[C@@H](C)C(=O)N[C@@H](CC(C)C)C(=O)NCC(N)=O)C(C)C)C(C)C)C(C)C [KLFDIVKKVVGALG]
MIC [11]: ≥ 100 µM

CC[C@H](C)[C@H](NC(=O)CNC(=O)[C@H](C)NC(=O)[C@H](CC(C)C)NC(=O)[C@H](C)NC(=O)[C@@H]1CCCN1C(=O)[C@H](CC(C)C)NC(=O)[C@@H](N)Cc1ccccc1)C(=O)N[C@@H](C)C(=O)NCC(=O)N[C@@H](CC(C)C)C(=O)N[C@@H](CC(C)C)C(=O)NCC(=O)N[C@@H](CCCCN)C(=O)N[C@H](C(=O)N[C@@H](Cc1ccccc1)C(N)=O)[C@@H](C)CC [FLPALAGIAGLLGKIF]
MIC [12]: 25 µM (≈ 40 µg/mL) | MIC [13]: 1.56 µM (≈ 2.5 µg/mL) | MIC [14]: ≥ 100 µM | MIC [15]: ≥ 50 µM | MIC [16]: 12.5 µM (≈ 20 µg/mL) | MIC [2]: 25 µM (≈ 40 µg/mL) | MIC [17]: ≥ 50 µM | MIC [18]: ≥ 50 µM | MIC [19]: ≥ 100 µM | MIC [20]: 5 µM (≈ 8 µg/mL) | MIC [21]: 60 µM (≈ 96 µg/mL) | MIC [22]: 12.5 µM (≈ 20 µg/mL) | MIC [23]: ≥ 100 µM | MIC [4]: 3.12 µM (≈ 4.99 µg/mL) | MIC [24]: 3.1 µM (≈ 4.96 µg/mL) | MIC [25]: 3.12 µM (≈ 4.99 µg/mL) | MIC [26]: 3.12 µM (≈ 4.99 µg/mL)

CC[C@H](C)[C@H](N)C(=O)N[C@@H](CC(C)C)C(=O)N[C@@H](Cc1c[nH]c2ccccc12)C(=O)N[C@@H](C)C(=O)N[C@@H](CS)C(=O)N[C@@H](Cc1c[nH]c2ccccc12)C(=O)NCC(=O)N[C@@H](CC(C)C)C(=O)N[C@@H](CCCCN)C(=O)N[C@@H](CC(C)C)C(=O)N[C@@H](CC(C)C)C(=O)N[C@@H](CCCN=C(N)N)C(=O)N[C@@H](Cc1ccc(O)cc1)C(=O)N[C@@H](CCCN=C(N)N)C(=O)N[C@@H](CCCN=C(N)N)C(=O)N[C@H](C(=O)N[C@@H](Cc1ccc(O)cc1)C(=O)O)[C@@H](C)CC [ILWACWGLKLLRYRRIY]
MIC [27]: 16 µM (≈ 35.6 µg/mL) | MIC [28]: ≥ 128 µM

CC(C)C[C@H](NC(=O)[C@H](Cc1ccccc1)NC(=O)[C@@H](NC(=O)[C@H](CC(C)C)NC(=O)[C@H](CC(=O)O)NC(=O)[C@H](CCCCN)NC(=O)[C@H](C)NC(=O)[C@@H](NC(=O)[C@H](CC(C)C)NC(=O)[C@@H](NC(=O)[C@H](C)N)[C@@H](C)O)[C@@H](C)O)[C@@H](C)O)C(=O)N[C@@H](CCC(N)=O)C(=O)N[C@@H](CC(=O)O)C(=O)N[C@@H](Cc1ccc(O)cc1)C(=O)N[C@@H](CCCCN)C(=O)N[C@@H](CCCCN)C(=O)N[C@H](C(=O)N[C@@H](CCCCN)C(=O)N[C@@H](CCCCN)C(=O)N[C@@H](CCCN=C(N)N)C(=O)N[C@H](C(=O)N[C@@H](CCCCN)C(=O)O)C(C)C)[C@@H](C)O [ATLTAKDLTFLQDYKKTKKRVK]
MIC [29]: 10 µM (≈ 26 µg/mL) | MIC [30]: ≥ 40 µM | MIC [31]: 20 µM (≈ 51.9 µg/mL) | MIC [32]: 20 µM (≈ 51.9 µg/mL) | MIC [33]: 20 µM (≈ 51.9 µg/mL)

CC[C@H](C)[C@H](NC(=O)[C@H](CCC(N)=O)NC(=O)[C@H](CO)NC(=O)[C@H](C)NC(=O)[C@H](CC(C)C)NC(=O)[C@H](Cc1cnc[nH]1)NC(=O)[C@@H](NC(=O)[C@H](CC(C)C)NC(=O)[C@H](CC(C)C)NC(=O)[C@H](CCC(=O)O)NC(=O)[C@H](CCCCN)NC(=O)CNC(=O)[C@H](C)NC(=O)CNC(=O)[C@H](CCCCN)NC(=O)[C@H](Cc1ccccc1)NC(=O)[C@H](Cc1ccccc1)NC(=O)[C@H](CC(=O)O)NC(=O)[C@H](CC(C)C)NC(=O)[C@H](CC(C)C)NC(=O)CN)[C@@H](C)O)C(N)=O [GLLDFFKGAGKELLTHLASQI]
MIC [34]: ≥ 250 µM | MIC [35]: ≥ 250 µM | MIC [17]: ≥ 62.5 µM | MIC [36]: ≥ 125 µM | MIC [37]: ≥ 125 µM | MIC [21]: > 125 µM | MIC [32]: 125 µM (≈ 282 µg/mL) | MIC [38]: ≥ 250 µM | MIC [39]: ≥ 250 µM

CC[C@H](C)[C@H](N)C(=O)N[C@@H](CC(C)C)C(=O)N1CCC[C@H]1C(=O)N[C@@H](CC(C)C)C(=O)N[C@@H](CC(C)C)C(=O)N[C@@H](CCCCN)C(=O)N[C@@H](CCCCN)C(=O)N[C@@H](Cc1ccccc1)C(=O)NCC(=O)N[C@@H](CCCCN)C(=O)N[C@@H](CCCCN)C(=O)N[C@@H](Cc1ccccc1)C(=O)NCC(=O)N[C@@H](CCCCN)C(=O)N[C@@H](CCCCN)C(=O)N[C@H](C(=O)N[C@@H](Cc1c[nH]c2ccccc12)C(=O)N[C@@H](CCCCN)C(=O)N[C@@H](C)C(=O)N[C@@H](CC(C)C)C(N)=O)C(C)C [ILPLLKKFGKKFGKKVWKAL]
MIC [40]: 10.7 µM (≈ 25 µg/mL)
